Five compounds from patent US9663463B2, “3-azabicyclo[3.1.0]hexane derivative and use thereof for medical purpose” (priority 2013, dated 2017) can be followed below.

Where a name gives a salt, the structure may show the parent alone.

Data set [1] has as its system pruritus mice model to which morphine had been intracisternally administered. Nature of the data set: Anti-pruritic effect in pruritus mice model to which morphine had been intracisternally administered. The data set is classed as in vivo. Conditions: Mus musculus; oral administration, male ICR mice, inhibition of morphine-induced scratching behavior; read-out: ED50. On the procedure: As experimental animals, male ICR (Cr1j: CD1 (ICR): Charles River Japan) mice were used at 5 to 6-week old. The mice were placed in an acrylic cage (colorless and transparent, W 13.5 cm×D 9.5 cm×H 40 cm) for observing scratching behavior for 30 minutes or more to thereby allow the mice to get used to the observation environment, and the test substance solutions were forcedly orally administered to the test substance-administered groups. In addition, an administration vehicle was forcedly orally administered to the normal control group and the pathological control group. A necessary amount of the test substance was weighed and formed into a micropowder in an agate mortar, an administration vehicle, a 0.5 w/v % methyl cellulose 400 solution (Wako Pure Chemical Industries Ltd.) was added little by little, and preparation was performed by suspending or dissolving so as to give an intended concentration (from 0.025 to 3 mg/ml). The test doses were preset to suitable doses in the range in which the maximum dose is 30 mg/10 ml/kg.
Based on 30 minutes after the forced oral administration of the test substance as a criterion, the time for the intracisternal administration of morphine was suitably set up to 120 minutes after at the maximum, with consideration for the times of maximum plasma concentration of the respective test substances, in the case when the in vivo pharmacokinetics of the test substance had been confirmed in advance. Furthermore, saline was intracisternally administered to the normal control group, and the above-mentioned morphine solution was intracisternally administered to the pathogenic control group, so as to be 5 μL/site at the same time as that of the test substance group after the forced oral administration of the administration vehicle in either case.
The behavior of each mouse within 60 minutes from the intracisternal administration of the morphine solution or saline was recorded by a digital video camera that was installed immediately above the acrylic cage, the images were stored in a digital video recorder, and the number of frequency of the scratching behavior was measured. The number of frequency of the scratching behavior was measured with deeming a behavior in which the mouse raised its hindlimb, scratched the facial surface and the peripheral sites thereof, and got the hindlimb off from the body within 30 minutes from after the intracisternal administration of the morphine or saline as one time.
The anti-pruritic effect of each test substance was obtained as follows. As an inhibition ratio against the number of frequency of the scratching behavior on the pathological control group, the inhibition ratio (%) of the respective individuals and the average value thereof were calculated from the following formula, and an ED50 value was calculated based on the obtained inhibition ratio. Inhibition ratio of each individual (%)={1−(A−Vehicle)/(Morphine−Vehicle)}×100 Morphine: the average of the scratching number of the pathological control group Vehicle: the average of the scratching number of the normal control group A: the scratching number of each individual in the test substance-administered group

A short description of data set [2]: Plasma concentration of test substance at ED50 value (mice, LC/MS/MS). The conditions noted are these: at the ED50 value, at time of morphine administration, oral, linear regression from two doses. It is filed as in vivo. The method, then:
The concentration of the test substances in blood plasma was confirmed by using mice of the same week-old for the same dose as that used in the evaluation of the anti-pruritic effect. The test substance was administered by forced oral administration of an administration vehicle prepared in a similar manner to that in the evaluation of the anti-pruritic effect under a non-fasting condition. The blood samples were collected from the orbital venous plexus, within from 15 minutes after the administration of the test substance to after 180 minutes at the maximum, for multiple times including the timing at which the morphine solution was intracisternally administered, under inhalation anesthesia with diethyl ether or isoflurane using a heparin-treated hematocrit tubes. The collected blood samples were immediately ice-cooled and centrifuged at 1,800 g for 15 minutes at 4° C., and the plasma fractions were transferred and stored under freezing at −30° C. or less until measurement.
The concentrations of the test substances in plasma were measured using LC/MS/MS. Furthermore, as the measurement samples for LC/MS/MS, the supernatants obtained by adding an internal standard substance and acetonitrile in an amount within a range from 5-fold to 10-fold of the amount of the plasma to the collected plasma samples, and removing proteins therefrom, was used.

Another data set in a line: in vitro. The data set is classed as in vitro ADME, mice. Conditions: Crl:CD-1 (ICR), mouse, pH 7.4; murine serum, equilibrium dialysis, 37° C., 5 to 6 hours; read-out: Protein binding rate (converted). The method, then:
The protein binding rate was determined by equilibrium dialysis method using the RED Device (8K MWCO, Rapid Equilibrium Dialysis Device, Thermo Scientific). The test substances that had been dissolved in DMSO were added to the serum that was collected from Crl: CD-1 (ICR) mice fasted overnight, so that the final concentration of DMSO became 1% (v/v). The serum to which the test substance had been added was added to the inner side of the dialysis membrane of the RED Device, and PBS (phosphate buffer saline, pH 7.4) containing 0.01% (v/v) Tween 80 was added to the outside in accordance with the method for using the RED Device and incubated at 37° C. for 5 to 6 hours with ellipsoidal shaking at 100 rpm so that the concentration of the unbound test substance in the serum and the concentration of the test substance in the PBS reached equilibrium. After the incubation was completed, the respective solutions were collected and stored under freezing at −60° C. or less as measurement samples. The proteins were removed from the measurement sample by adding acetonitrile in an amount of 5-fold or more of the amount of the internal standard substance and the serum sample, and the supernatants were measured by LC/MS/MS (liquid chromatograph—triple quadrupole mass spectrometer). The serum samples were measured after suitably diluting with distilled water as necessary.
A: the concentration of the test substance in the PBS sample
B: the concentration of the test substance in the serum sample
A general note: In equilibrium dialysis free small molecules cross a membrane that holds back macromolecules.

A further data set concerns the target hERG current (Homo sapiens (Human), UniProt Q12809). The data set can be described thus: cell-based. From the text: A: the suppression rate (%) of the test substance in each cell
B: the average suppression rate (%) of the vehicle control group

Another data set deals with hERG (Homo sapiens (Human), UniProt Q12809). The data set can be described thus: Safety margin against hERG inhibitory activity. The conditions noted are these: hERG IC50×1000/{concentration in plasma at ED50×(1−protein binding rate/100)}. The method, then: In order to compare the risks of extension of QT interval prolongation in the electrocardiogram among the test substances, the safety margins against the hERG inhibitory effect were calculated. […] Therefore, the following formula was used for calculating the safety margin, and the obtained values were described in Table 7. Safety margin against hERG inhibitory effect=IC50×1000/{concentration in plasma×(1−protein binding rate/100)}
IC50: the IC50 value in a hERG inhibition assay (μM)
Plasma concentration: the plasma concentration of test substance (nM) at the ED50 value in the test for evaluating the anti-pruritic effect in the morphine model
Protein binding rate: the protein binding rate (%) in the protein binding assay in murine serum
(hERG is a cardiac potassium channel; its block is linked to QT prolongation.)

For another data set, the target named is human μ-opioid receptor (Homo sapiens (Human), UniProt P35372). The data set can be described thus: Antagonist activity test using [35S]-GTPγS bond as index using human μ-opioid receptor-expressing cell membrane. The data set is classed as biochemical. On the procedure: Cells in which a human μ-opioid receptor had been highly expressed was purchased from ChanTest (Cleveland). The cells were cultured in a carbon dioxide gas culturing apparatus by using a Ham's F12 culture medium (Invitrogen) containing 10% of fetal bovine blood serum, 1% of non-essential amino acids, 0.4 mg/ml of G418, 100 U/ml of penicillin and 100 μg/ml of streptomycin. The cultured cells were suspended by using a 0.25% trypsin 1 mM EDTA solution, the suspension was collected by using phosphate-buffered saline and centrifuged at 4° C. and 1,000 rpm for 10 minute to remove the supernatant, whereby a cell mass was obtained. […] Similar homogenization and centrifugation operations were repeated on the sediment, a homogenized buffer was added again to the obtained sediment, and the resultant was similarly homogenized to give a membrane fraction solution. The obtained membrane fraction solution was dispensed, rapidly frozen and stored under freezing at −70° C. or less until use. Furthermore, the protein concentration of the obtained membrane fraction solution was measured by using a BCA protein Assay Kit (Cat. 23227, Pierce) according to the protocol attached to the kit.
The cell membrane fraction solution in which the human μ-opioid receptor had expressed, which had been stored under freezing, was melted, a GTP assay buffer (100 mM NaCl, 5 mM MgCl2, 1 mM EDTA-containing 50 mM Hepes (pH 7.4)) was added thereto, and the resultant was homogenized repeatedly twice by using a Polytron homogenizer (SMT Multi Disperser PB95) under ice cooling at 12,000 rpm for 20 seconds to give a homogeneous solution, and the homogeneous solution was diluted to 0.036 mg/ml with a GTP assay buffer containing 18.2 μM of GDP (final concentration: […]). The dilution was incubated for 15 minutes or more under ice cooling until the reaction was initiated. […] [^35S]-GTPγS (NEG030X, Perkinelmer) was diluted with a GTP assay buffer so as to be 0.616 nM (final concentration: 0.08 nM). The resultant was diluted with a GTP assay buffer so as to be 200 nM (final concentration: 10 nM) by using [D-Ala^2, N-Me-Phe^4, Gly^5-ol]-enkephalinacetate (DAMGO, Sigma) as a μ-opioid receptor agonist. WGA Coated PVT SPA Beads (RPNQ0001, Perkinelmer) were added so as to be 20 mg/ml with a GTP assay buffer, and the resultant was suspended (final concentration: 1 mg/well). 4 μL/well of a test substance solution, 10 μL/well of a DAMGO solution, 26 μL/well of a [^35S]-GTPγS solution, […] of a suspension liquid of WGA Coated PVT SPA Beads, and 110 μL/well of the membrane fraction solution were added to a 96 well plate (1450-401, Perkinelmer), the top part of the plate was sealed, and a reaction was performed at 30° C. for 60 minutes under stirring with a plate shaker. For each measurement plate, a well to which DMSO had been added instead of the test substance, and a well to which DMSO had been added instead of the test substance and a GTP assay buffer had been added instead of the DAMGO solution were prepared. Furthermore, after the reaction was completed, the reactant was centrifuged at room temperature and 1,000 rpm for 3 minutes, and the radioactivity was measured by a microplate scintillation luminescence counter (Perkinelmer).
The IC50 value of the test substance was calculated by using Graphpad Prism 5.
A general note: GTPγS is a poorly hydrolysed GTP analogue; its binding reports G protein activation.

Sequence of hERG current (Q12809 whole entry): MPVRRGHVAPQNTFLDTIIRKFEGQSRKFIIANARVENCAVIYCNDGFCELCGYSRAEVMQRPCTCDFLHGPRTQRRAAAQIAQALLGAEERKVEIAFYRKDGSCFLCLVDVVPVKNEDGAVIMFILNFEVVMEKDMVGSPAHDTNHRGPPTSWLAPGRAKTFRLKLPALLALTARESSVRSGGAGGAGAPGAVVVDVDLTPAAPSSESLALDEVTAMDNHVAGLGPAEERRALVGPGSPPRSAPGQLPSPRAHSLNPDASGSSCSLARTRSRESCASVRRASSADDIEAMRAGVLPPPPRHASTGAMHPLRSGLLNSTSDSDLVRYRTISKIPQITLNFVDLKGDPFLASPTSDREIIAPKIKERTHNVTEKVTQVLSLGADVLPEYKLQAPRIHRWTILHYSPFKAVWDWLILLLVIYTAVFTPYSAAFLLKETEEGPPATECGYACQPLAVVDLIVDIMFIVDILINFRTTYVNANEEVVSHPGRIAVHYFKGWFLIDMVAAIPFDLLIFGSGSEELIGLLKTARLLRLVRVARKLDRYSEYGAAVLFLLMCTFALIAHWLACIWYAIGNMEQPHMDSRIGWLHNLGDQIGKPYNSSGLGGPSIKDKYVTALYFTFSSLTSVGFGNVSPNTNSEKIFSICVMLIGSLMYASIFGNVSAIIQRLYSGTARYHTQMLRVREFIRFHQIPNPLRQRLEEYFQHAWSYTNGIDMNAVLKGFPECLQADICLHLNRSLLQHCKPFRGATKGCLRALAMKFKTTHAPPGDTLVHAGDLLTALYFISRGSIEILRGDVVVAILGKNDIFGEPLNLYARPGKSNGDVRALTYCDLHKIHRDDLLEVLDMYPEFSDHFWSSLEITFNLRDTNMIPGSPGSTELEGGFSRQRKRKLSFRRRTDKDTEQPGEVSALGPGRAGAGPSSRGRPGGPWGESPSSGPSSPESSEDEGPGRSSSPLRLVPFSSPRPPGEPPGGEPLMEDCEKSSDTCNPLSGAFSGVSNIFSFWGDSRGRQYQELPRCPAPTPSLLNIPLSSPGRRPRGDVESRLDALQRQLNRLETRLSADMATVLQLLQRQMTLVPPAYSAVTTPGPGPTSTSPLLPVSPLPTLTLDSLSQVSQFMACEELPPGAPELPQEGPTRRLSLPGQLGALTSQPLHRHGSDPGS

With `CC[C@]1(c2cccc(NS(=O)(=O)C3CC3)c2)[C@@H]2CN(CC3(O)Cc4ccccc4C3)C[C@@H]21` [Example 1-(a), N-(3-{(1R,5S,6r)-6-ethyl-3-[(2-hydroxy-2,3-dihydro-1H-inden-2-yl)methyl]-3-azabicyclo[3.1.0]hexan-6-yl}phenyl)cyclopropanesulfonamide], the ED50 (commonly the dose that gives a 50% effect, or the effect in half of the subjects) in data set [1] worked out at 3.5 mg/kg. Besides, the “Plasma concentration of test substance” value in data set [2] amounted to 0.0708 µM. The fraction unbound in the data set “in vitro” was 0.019. Moreover, on hERG current, the 50% inhibitory concentration (IC50) (commonly the concentration needed to halve the response being measured) turned out to be 0.11 µM. The compound also displayed a Safety margin at hERG of 82.
With `CC[C@]1(c2cccc(NS(=O)(=O)C3CC3)c2)[C@@H]2CN(CC3(OC)Cc4ccccc4C3)C[C@@H]21` [Example 3-(b), N-(3-{(1R,5S,6r)-6-ethyl-3-[(2-methoxy-2,3-dihydro-1H-inden-2-yl)methyl]-3-azabicyclo[3.1.0]hexan-6-yl}phenyl)cyclopropanesulfonamide hydrochloride], in data set [1], the ED50 was found to be 4.2 mg/kg. Moreover, in data set [2], the “Plasma concentration of test substance” value was 0.0488 µM. Further, the IC50 on hERG current is 0.58 µM; on human μ-opioid receptor it was 0.0036 µM. Moreover, the Safety margin at hERG is on record as 1980.
With `CC[C@]1(c2cccc(NS(=O)(=O)C3CC3)c2)[C@@H]2CN(CCCC3(OC)CCC(F)(F)CC3)C[C@@H]21` [Example 6-(b), N-(3-{(1R,5S,6r)-3-[3-(4,4-difluoro-1-methoxycyclohexyl)propyl]-6-ethyl-3-azabicyclo[3.1.0]hexan-6-yl}phenyl)cyclopropanesulfonamide hydrochloride], in data set [1], the ED50 amounted to 0.42 mg/kg. The fraction unbound in “in vitro” is 0.039. At hERG current, the IC50 worked out at 0.66 µM.
Consider `CC[C@]1(c2cccc(NS(=O)(=O)C3CC3)c2)[C@@H]2CN(CCCN3CCC(F)(F)CC3)C[C@@H]21` [Example 7-(b), N-(3-{(1R,5S,6r)-3-[3-(4,4-difluoropiperidin-1-yl)propyl]-6-ethyl-3-azabicyclo[3.1.0]hexan-6-yl}phenyl)cyclopropanesulfonamide hydrochloride], for which the ED50 in data set [1] is 2.4 mg/kg. In data set [2], the “Plasma concentration of test substance” value was determined as 0.0215 µM. For the same compound, the IC50 was 1.2 µM on hERG current and 0.0014 µM against human μ-opioid receptor. Moreover, the Safety margin on hERG is listed as 375.
For `C[C@]1(c2cccc(NS(=O)(=O)C3CC3)c2)[C@@H]2CN(CC3(O)Cc4ccccc4C3)C[C@@H]21` [Example 17-(b), N-(3-{(1R,5S,6r)-3-[(2-hydroxy-2,3-dihydro-1H-inden-2-yl)methyl]-6-methyl-3-azabicyclo[3.1.0]hexan-6-yl}phenyl)cyclopropanesulfonamide hydrochloride], the ED50 in data set [1] was found to be 1.5 mg/kg. Besides, the “Plasma concentration of test substance” value in data set [2] turned out to be 0.0682 µM. Moreover, the IC50 against hERG current is 0.13 µM; on human μ-opioid receptor it was 0.0054 µM. On hERG, this compound yielded a Safety margin of 48.
